Literature values in patent US6576415B2, “Photothermographic materials with increa sed photosensitivity” (priority 2000, dated 2003).
Where two headings read alike, the source gives them in different places.

| SMILES | Solubility in water (at 15° C.) | Solubility in water (at 20° C.) |
| --- | --- | --- |
| [Ag+].[Ag+].[O]=[W](=[O])([O-])[O-] [silver tungstate] | 500 µg/mL | – |
| O=P(=O)[O-].[Ag+] [silver metaphosphate] | – | 3200 µg/mL |
